Reference: PubChem BioAssay (NCI)
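Five concentrations, 48 hours, 96-well plates. TGI: total growth inhibition.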 Where a SMILES comes first, the peptide text is derived from it. The star is where a group is joined. Boc = CC(C)(C)OC(=O)*

How the values were obtained:
Assay in all cases: DTP human tumour cell line panel, 48 h
UO-31 renal = system: UO-31 renal
OVCAR-8 ovarian = system: OVCAR-8 ovarian
KM12 colon = system: KM12 colon
NCI-H226 lung = system: NCI-H226 lung
SF-295 CNS = system: SF-295 CNS
MCF7 breast = system: MCF7 breast
IGROV1 ovarian = system: IGROV1 ovarian
SK-OV-3 ovarian = system: SK-OV-3 ovarian
DU-145 prostate = system: DU-145 prostate
HCT-116 colon = system: HCT-116 colon
786-0 renal = system: 786-0 renal
A498 renal = system: A498 renal
K-562 leukemia = system: K-562 leukemia
SW-620 colon = system: SW-620 colon
NCI-H460 lung = system: NCI-H460 lung
HCC-2998 colon = system: HCC-2998 colon
MDA-MB-435 = system: MDA-MB-435
HCT-15 colon = system: HCT-15 colon
RXF 393 renal = system: RXF 393 renal

Row | SMILES | TGI (UO-31 renal) | TGI (OVCAR-8 ovarian) | TGI (KM12 colon) | TGI (NCI-H226 lung) | TGI (SF-295 CNS) | TGI (MCF7 breast) | TGI (IGROV1 ovarian) | TGI (SK-OV-3 ovarian) | TGI (DU-145 prostate) | TGI (HCT-116 colon) | TGI (786-0 renal) | TGI (A498 renal) | TGI (K-562 leukemia) | TGI (SW-620 colon) | TGI (NCI-H460 lung) | TGI (HCC-2998 colon) | TGI (MDA-MB-435) | TGI (HCT-15 colon) | TGI (RXF 393 renal)
1 | CC(=O)C1C(=O)C(=O)N(c2cccc(C)c2C)C1=O (centres undefined) | > 100 µM | > 100 µM | > 100 µM | > 100 µM | > 100 µM | > 100 µM | > 100 µM | > 100 µM | > 100 µM | > 100 µM | > 100 µM |  |  |  |  |  |  |  | 
2 | CC(NC(=O)C(NC(=O)OC(C)(C)C)C(C)C)C(=O)N1CCCC1C(=O)NCC(=O)NC(C(=O)NCC(=O)O)C(C)C (centres undefined) (Boc-VAPGVG-OH; configuration not given here) | > 100 µM | > 100 µM |  |  | > 100 µM | > 100 µM | > 100 µM | > 100 µM | > 100 µM | > 100 µM | > 100 µM | > 100 µM | > 100 µM | > 100 µM | > 100 µM | > 100 µM | > 100 µM | > 100 µM | 
3 | CC1CN=C(Nc2ccc(F)cc2F)S1 (centres undefined) | > 100 µM | > 100 µM | > 100 µM |  | > 100 µM | > 100 µM | > 100 µM | > 100 µM | > 100 µM | > 100 µM | > 100 µM | > 100 µM | > 100 µM | > 100 µM | > 100 µM | > 100 µM |  | > 100 µM | 
4 | CC1=NN(C(=O)CC(=O)Nc2ccccc2C)C(=O)C1N=Nc1ccc(C(=O)O)cc1 (centres undefined) | > 100 µM | > 100 µM | > 100 µM |  | > 100 µM | > 100 µM | > 100 µM |  | > 100 µM | > 100 µM | > 100 µM | > 100 µM | > 100 µM | > 100 µM | > 100 µM | > 100 µM | > 100 µM | > 100 µM | > 100 µM
5 | CCOC(=O)c1c(N)nn2c1cc1cccccc12 |  | 73.1 µM | 54.6 µM |  | 86.7 µM | > 100 µM | 94.8 µM | > 100 µM | > 100 µM | > 100 µM | > 100 µM | 84.9 µM |  | > 100 µM | 58.6 µM | > 100 µM | > 100 µM | > 100 µM | > 100 µM
6 | COC(=O)/C=C/c1ccc2c(c1)CCC2 | > 100 µM | > 100 µM |  |  | > 100 µM | > 100 µM | > 100 µM | > 100 µM | > 100 µM | 98 µM | > 100 µM | > 100 µM | > 100 µM | > 100 µM | > 100 µM | > 100 µM | > 100 µM | > 100 µM | > 100 µM
7 | O=c1cc(-c2ccccc2)[nH]c2cc(F)c(F)cc12 | > 100 µM | > 100 µM | > 100 µM | > 26.4 µM | > 100 µM | > 71.9 µM | > 54.1 µM | > 56.1 µM | 34.1 µM | > 100 µM | 4.18 µM | > 62.8 µM | > 100 µM | > 100 µM | > 100 µM | > 30.9 µM |  | > 100 µM | 0.616 µM
8 | CC(=O)Oc1ccc2c(c1)Oc1cc(C(C)=O)ccc1C21OC(=O)c2ccccc21 (centres undefined) | > 100 µM | > 100 µM | > 100 µM |  | > 100 µM | > 100 µM | > 100 µM | > 100 µM | > 100 µM | > 100 µM | > 100 µM | > 100 µM | > 100 µM | > 100 µM | > 100 µM | > 100 µM | > 100 µM | > 100 µM | > 100 µM
9 | N#Cc1c2ccc([N+](=O)[O-])cc2c(=O)n2c1sc1ccc(C(F)(F)F)cc12 | > 100 µM | > 100 µM | > 100 µM | > 100 µM | > 100 µM |  | > 100 µM | > 100 µM | > 100 µM | > 100 µM | > 100 µM | > 100 µM | > 100 µM | > 100 µM | > 100 µM |  | > 100 µM | > 100 µM | > 100 µM
10 | COc1cc(N=CN(C)C)c2ncccc2c1 | > 100 µM | > 100 µM |  | > 100 µM | > 100 µM | > 100 µM | > 100 µM | > 100 µM | > 100 µM | > 100 µM | > 100 µM | > 100 µM | 47 µM |  |  |  | > 100 µM | > 100 µM | > 100 µM
11 | CCOC(=O)c1ccc(Nc2nc3cc(C(F)(F)F)ccc3nc2-c2ccccc2)cc1 | > 100 µM | > 100 µM | > 100 µM | > 100 µM | 60.6 µM | > 100 µM | > 100 µM |  | > 100 µM | > 100 µM | 44.8 µM |  | > 100 µM | > 100 µM | > 100 µM | 89.5 µM | > 100 µM | > 100 µM | 98 µM
12 | O=C(O)CNC(=O)CO/N=C1/C(c2c(O)[nH]c3ccccc23)=Nc2ccccc21 | > 100 µM | > 100 µM | > 100 µM | > 100 µM | > 100 µM | > 100 µM | > 100 µM | > 100 µM | > 100 µM | > 100 µM | > 100 µM |  | > 100 µM | > 100 µM | > 100 µM | > 100 µM | > 100 µM | > 100 µM | > 100 µM
13 | CC(C)/C(Cl)=N\OC(=O)Nc1cccc(F)c1 | 32.6 µM | 31.1 µM | 16.7 µM | 33.5 µM | > 53.9 µM | 32.8 µM | 36.2 µM | 35.2 µM | 32.5 µM | 30.6 µM | 29.6 µM | 17.9 µM | 4.8 µM | 5.5 µM | > 66.8 µM | 36.9 µM |  | 30.6 µM | 31 µM
14 | C=CCCC(OCOCCOC)c1cc(C)c(O[Si](C)(C)C(C)(C)C)c(C)c1 (centres undefined) | 23.9 µM | 39.8 µM | 29.3 µM | 26.4 µM | 31.8 µM |  | 90.5 µM | 55.1 µM |  |  | 28.1 µM | 70.6 µM | 26.2 µM | 33.2 µM | 32.1 µM | 27.5 µM |  | 31.4 µM | 27.4 µM
